Tested on: LMW-COMP fragment
Assay: LMW-COMP fragments in synovial fluid of treated arthritis patients
Type: in vivo, human
Details: strong anti-arthritic compound
Description: Twenty microliters of human synovial fluids were mixed 1:1 with SDS-PAGE loading buffer (NOVEX, San Diego, Calif.) containing 10% mercaptoethanol. The samples were boiled for 4 min. and […] applied per lane on a 14% or a 4-12% gradient SDS-PAGE Tris-Gly gel (Novex, Calif.). A separate set of these samples was also prepared for analysis under non-reducing conditions. Molecular weight markers were used to localize the molecular weight of unknowns. After electrophoresis, the samples were electrophoretically transferred onto a nitro-cellulose paper. The paper was treated with 2% bovine serum albumin (BSA) in 10 mM sodium phosphate, 0.15 M NaCl at […] (PBS) for 18 hours at 4° C.
The nitrocelluose paper was rinsed with PBS (10 mM sodium phosphate, 0.15 M NaCl at pH 7.2). […] The bound antibody was then detected using ECL or ECF substrate (Amersham Co.). The fragments were quantified using a Molecular Dynamics densitometer (Sunnyvale, Calif.). […]
A 96-well microtiter plate was coated with 0.1 ml/well of 50 ng/ml of antigen (synthetic peptide H741 without the N-terminal cysteine) in PBS for 48 to 72 h at 4° C. […] After 1 h at RT, the plate was washed 3-times with the ELISA wash buffer and the bound antibody detected by adding 100 μl/well of p-nitrophenyl phosphate substrate solution (Sigma, St. Louis, Mo.) and measuring optical density (OD) at 405 nm. […]

CN(Cc1cnc2nc(N)nc(N)c2n1)c1ccc(C(=O)N[C@@H](CCC(=O)O)C(=O)O)cc1 [methotrexate]
LMW-COMP fragment produced under treatment: less

CN1C(C(=O)Nc2ccccn2)=C(O)c2ccccc2S1(=O)=O [piroxicam]
LMW-COMP fragment produced under treatment: less

Reference: patent publication US6589755B1, “Assay for quantifying arthritic conditions” (Novartis AG, priority 1996, dated 2003)
